Experimental data as given in patent US20090203749A1, “AGENT FOR CONTROL OF DEGRANULATION REACTION AND CYTOKINE PRODUCTION” (RIKEN, priority 2005, published 2009).

Key:
[1] = test system: bone marrow-derived mast cells; experiment: antigen stimulation-dependent chemical mediator (β-hexosaminidase) release (degranulation) from mast cells; type: cell-based; settings: TPEN 0, 2, 5 and 10 μM; IgE-sensitized mast cells stimulated with DNP-HSA for 30 minutes; FIG. 1
Procedure: The mast cells used were bone marrow-derived mast cells whose differentiation was induced by culturing bone marrow cells with interleukin-3 for 5 weeks. The obtained bone marrow-derived mast cells (1×10^7 cells) were sensitized with 1 μg/mL IgE antibody (SPE-7 clone; available from SIGMA) for 6 hours. After sensitization, the cells were resuspended in Tyrode's buffer (pH 7.4). The composition of the Tyrode's buffer is as described in Table 1.
The obtained mast cell suspension was stimulated with an antigen (DNP-HSA; dinitrophenyl conjugated Human Serum Albumin; available from SIGMA) at each concentration (shown in FIG. 1) for 30 minutes. To investigate the effect of zinc ions, a zinc ion chelator TPEN (0, 2, 5 and 10 μM) was allowed to coexist with the cells for 2 hours during the sensitization period and for 30 minutes of the stimulation. Chemical mediator β-hexosaminidase released from the mast cells was measured. The activity of β-hexosaminidase was measured with an absorption spectrometer at wavelength of 405 nm by using 4-nitrophenyl N-acetyl-β-D-glucosaminide (available from SIGMA) as a substrate. The extracellular release of entire β-hexosaminidase present in the cell was defined as 100%.

[2] = test system: bone marrow-derived mast cells; experiment: restoration of TPEN effect on β-hexosaminidase release by enforced introduction of zinc ion; type: cell-based; settings: TPEN 10 μM; 1 μM pyrithione and zinc ions during DNP-HSA stimulation; FIG. 2
Procedure: As mast cells sensitized with IgE antibody, the cells prepared in the same way as in Example 1 were used. After sensitization, the mast cells were resuspended in Tyrode's buffer. A zinc ion chelator TPEN (10 μM) was allowed to coexist with the cells for 2 hours during the sensitization period and for 30 minutes of the stimulation. To introduce zinc ions into the cells, the cells were treated with 1 μM pyrithione (Molecular probes, p-24193) during the stimulation, and zinc ions were added at each concentration (shown in FIG. 2) to Tyrode's buffer. The activity of β-hexosaminidase was measured in the same way as in Example 1. TPEN-untreated cells were used as a control, and the extracellular release of entire β-hexosaminidase present in the cell was defined as 100%.

[3] = test system: bone marrow-derived mast cells; experiment: cytokine production (IL-6 and TNF-α) of mast cells, ELISA; type: cell-based; settings: TPEN 0, 2, 5 and 10 μM; DNP-HSA 100 ng/ml for 6 hours; FIG. 3
Procedure: As mast cells sensitized with IgE antibody, the cells prepared in the same way as described in Example 1 were used. After sensitization, the mast cells were resuspended in Tyrode's buffer. The mast cell suspension was stimulated with an antigen (DNP-HSA) at a concentration of 100 ng/ml for 6 hours. To investigate the effect of zinc ions, a zinc ion chelator TPEN (0, 2, 5 and 10 μM) was allowed to coexist with the cells for 2 hours during sensitization and for 6 hours of the stimulation.
The concentrations of cytokines (IL-6 and TNF-α) in the supernatant were determined using ELISA (BIOSOURCE).

[4] = test system: passive cutaneous anaphylaxis; experiment: passive cutaneous anaphylaxis (type I allergy) model, Evans blue dye leakage; type: in vivo; settings: TPEN intraperitoneally 30 minutes before DNP-BSA challenge; mouse ear; FIG. 4
Procedure: Mouse (6 week-old female, Balb/c Ajc1, CLEA Japan) was sensitized by subcutaneously administering 0.5 μg of IgE antibody (SPE-7, SIGMA) into the ear in order to induce passive cutaneous anaphylaxis. 30 minutes later, passive cutaneous anaphylaxis was induced by intravenous injection of 250 μg of antigen DNP-BSA (COSMOBIO) and 1.25 mg of Evans blue (SIGMA) into the tail of the mouse. In order to digitalize Evans blue dye leakage, the dye was extracted from the ear of the mouse using formamide. The extracted dye was measured by absorbance at wavelength of 620 nm. The amount of dye in each experiment was calculated from the analytical curve obtained by known amounts of Evans blue.

c1ccc(CN(CCN(Cc2ccccn2)Cc2ccccn2)Cc2ccccn2)nc1 [TPEN, N,N,N′,N′-tetrakis(2-pyridylmethyl)ethylenediamine]
chemical mediator (β-hexosaminidase) release [1]: concentration-dependent suppressive effect | suppressive effect on the chemical mediator release after addition of zinc ions [2]: restored by the addition of the zinc ions | cytokine production (IL-6 and TNF-α in supernatant) [3]: dose dependent suppression | dye leakage of Evans blue [4]: suppressed dose-dependently
